Results as given in ChEMBL document CHEMBL2331316, “Highly potent and selective cannabinoid receptor 2 agonists: initial hit optimization of an adamantyl hit series identified from high-through-put screening” (Bioorg Med Chem Lett, 2013).
pEC50, pKi: −log10 of the molar value. Values after ≈ are worked out from the molar mass of the structure shown.

What was measured:
Cannabinoid receptor 1 [1] = target: T1, Cannabinoid receptor 1 (Homo sapiens, UniProt P21554); experiment: Agonist activity at human CB1 receptor by cAMP read-out assay; assay type: functional
T1 sequence (P21554 whole entry): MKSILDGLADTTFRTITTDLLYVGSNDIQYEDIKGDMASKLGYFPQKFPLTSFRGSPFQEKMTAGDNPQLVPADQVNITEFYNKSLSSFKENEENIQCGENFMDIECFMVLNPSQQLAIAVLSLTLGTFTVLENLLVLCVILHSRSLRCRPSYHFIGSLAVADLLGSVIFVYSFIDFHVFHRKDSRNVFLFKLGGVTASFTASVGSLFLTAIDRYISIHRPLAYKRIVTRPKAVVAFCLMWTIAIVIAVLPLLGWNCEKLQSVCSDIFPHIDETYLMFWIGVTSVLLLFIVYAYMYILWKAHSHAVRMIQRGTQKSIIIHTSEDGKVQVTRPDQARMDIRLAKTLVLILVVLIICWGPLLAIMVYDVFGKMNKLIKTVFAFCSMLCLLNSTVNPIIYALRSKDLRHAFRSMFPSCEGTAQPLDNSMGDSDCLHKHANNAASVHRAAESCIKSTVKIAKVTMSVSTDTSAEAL

Cannabinoid receptor 2 [2] = target: T2, Cannabinoid receptor 2 (Homo sapiens, UniProt P34972); experiment: Agonist activity at human CB2 receptor by beta-arrestin recruitment assay
T2 sequence (P34972 whole entry): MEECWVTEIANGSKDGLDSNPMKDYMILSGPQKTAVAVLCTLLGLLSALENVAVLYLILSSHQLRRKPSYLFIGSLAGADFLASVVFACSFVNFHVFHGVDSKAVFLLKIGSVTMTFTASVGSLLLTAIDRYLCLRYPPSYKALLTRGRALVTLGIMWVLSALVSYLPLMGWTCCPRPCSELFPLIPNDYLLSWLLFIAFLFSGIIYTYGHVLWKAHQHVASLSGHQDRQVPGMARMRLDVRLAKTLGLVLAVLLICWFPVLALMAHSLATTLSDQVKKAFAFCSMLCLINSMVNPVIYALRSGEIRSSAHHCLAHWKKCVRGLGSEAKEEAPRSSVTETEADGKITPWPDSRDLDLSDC

Cannabinoid receptor 2 [3] = target: T2, Cannabinoid receptor 2; experiment: Agonist activity at human CB2 receptor by cAMP read-out assay; assay type: functional
Cannabinoid receptor 1 [4] = target: T1, Cannabinoid receptor 1; experiment: Binding affinity to CB1 receptor (unknown origin)
Cannabinoid receptor 2 [5] = target: T2, Cannabinoid receptor 2; experiment: Binding affinity to CB2 receptor (unknown origin)
[6] = Metabolic stability in human microsomes assessed as maximal achievable bioavailability; assay type: ADME, Microsome; conditions: read-out: Stability
[7] = Permeability, Pe of the compound assessed as drug accumulation; assay type: ADME; conditions: not told; read-out: permeability
[8] = Permeability, Pe of the compound; assay type: ADME; conditions: not told; read-out: permeability
[9] = Lipophilicity, log D of the compound; assay type: physicochemical; conditions: octanol/water
[10] = Solubility, of the compound by LYSA assay; assay type: physicochemical
Cannabinoid receptor 1 [11] = target: Cannabinoid receptor 1 (Mus musculus, UniProt P47746); experiment: Agonist activity at mouse CB1 receptor by cAMP read-out assay; assay type: functional
Sequence of Cannabinoid receptor 1 (Mus musculus, UniProt P47746) (P47746 whole entry): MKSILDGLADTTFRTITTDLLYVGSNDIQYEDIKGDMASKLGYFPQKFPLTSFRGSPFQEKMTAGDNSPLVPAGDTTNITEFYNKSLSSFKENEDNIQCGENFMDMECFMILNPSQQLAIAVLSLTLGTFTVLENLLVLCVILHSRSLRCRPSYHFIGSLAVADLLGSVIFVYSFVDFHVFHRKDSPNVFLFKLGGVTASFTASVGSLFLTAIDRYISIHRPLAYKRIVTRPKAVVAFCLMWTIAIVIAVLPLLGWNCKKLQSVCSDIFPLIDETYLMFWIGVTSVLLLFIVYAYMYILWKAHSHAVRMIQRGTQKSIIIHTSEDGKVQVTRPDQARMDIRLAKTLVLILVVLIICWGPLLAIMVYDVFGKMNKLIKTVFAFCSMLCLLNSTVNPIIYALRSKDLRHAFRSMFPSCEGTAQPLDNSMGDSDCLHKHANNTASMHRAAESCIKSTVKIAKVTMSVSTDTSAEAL

Cannabinoid receptor 2 [12] = target: T3, Cannabinoid receptor 2 (Mus musculus, UniProt P47936); experiment: Binding affinity to mouse CB2 receptor
T3 sequence (P47936 whole entry): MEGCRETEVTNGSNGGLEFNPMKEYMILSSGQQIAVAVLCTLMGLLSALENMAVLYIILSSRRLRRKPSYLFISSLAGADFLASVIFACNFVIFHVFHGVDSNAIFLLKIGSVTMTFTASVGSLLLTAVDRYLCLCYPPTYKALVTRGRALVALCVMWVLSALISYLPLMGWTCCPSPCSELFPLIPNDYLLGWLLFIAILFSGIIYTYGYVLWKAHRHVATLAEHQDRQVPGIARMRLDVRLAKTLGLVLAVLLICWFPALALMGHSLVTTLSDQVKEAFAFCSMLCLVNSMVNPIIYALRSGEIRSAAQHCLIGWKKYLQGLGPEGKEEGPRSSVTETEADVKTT

Cannabinoid receptor 2 [13] = target: T2, Cannabinoid receptor 2; experiment: Binding affinity to human CB2 receptor
Cannabinoid receptor 2 [14] = target: Cannabinoid receptor 2 (Homo sapiens, UniProt P34972, Q63R); experiment: Agonist activity at human CB2 receptor Q63R mutant
Sequence of Cannabinoid receptor 2 (Homo sapiens, UniProt P34972, Q63R) (P34972 whole entry Q63R): as the sequence (P34972 whole entry) above, with Q63R counted along it

Cannabinoid receptor 2 [15] = target: T3, Cannabinoid receptor 2; experiment: Agonist activity at mouse CB2 receptor by cAMP read-out assay; assay type: functional

Compound: O=C(NC(=S)N1CCCCC1)C12CC3CC(CC(C3)C1)C2
- pEC50 (Cannabinoid receptor 1 [1]): < 5.00
- pEC50 (Cannabinoid receptor 2 [2]): 6.30
- pEC50 (Cannabinoid receptor 2 [3]): 5.85

Compound: Cc1csc(NC(=O)C23CC4CC(CC(C4)C2)C3)n1
- pEC50 (Cannabinoid receptor 1 [1]): < 5.00
- pEC50 (Cannabinoid receptor 2 [2]): 6.05
- pEC50 (Cannabinoid receptor 2 [3]): 6.22

Compound: CCOc1ccc(NC(=O)C23CC4CC(CC(C4)C2)C3)cc1
- pEC50 (Cannabinoid receptor 1 [1]): < 5.00
- pEC50 (Cannabinoid receptor 2 [3]): 5.92

Compound: CC(=O)c1ccccc1NC(=O)C12CC3CC(CC(C3)C1)C2
- pEC50 (Cannabinoid receptor 1 [1]): < 5.00
- pEC50 (Cannabinoid receptor 2 [3]): 7.00

Compound: CCOC(=O)c1ccccc1NC(=O)C12CC3CC(CC(C3)C1)C2
- pEC50 (Cannabinoid receptor 1 [1]): < 5.00
- pEC50 (Cannabinoid receptor 2 [2]): 7.12
- pEC50 (Cannabinoid receptor 2 [3]): 7.82

Compound: COC(=O)c1cccc(NC(=O)C23CC4CC(CC(C4)C2)C3)c1
- pEC50 (Cannabinoid receptor 1 [1]): < 5.00
- pEC50 (Cannabinoid receptor 2 [3]): < 5.00

Compound: O=C(NC12CC3CC(CC(C3)C1)C2)c1nn(CCN2CCOCC2)c2ccccc12
- pKi (Cannabinoid receptor 1 [4]): 8.17
- pKi (Cannabinoid receptor 2 [5]): 9.82

Compound: COC1CCN(C(=O)C23CC4CC(CC(C4)C2)C3)c2ccccc21 (stereo not given)
- Fh [6]: 12%
- Papp [7]: 4.6 ×10⁻⁶ cm/s
- Papp [8]: 3.3 ×10⁻⁶ cm/s
- logD [9]: 3.79
- solubility [10]: 10 µg/mL (≈ 30.7 µM)
- pEC50 (Cannabinoid receptor 1 [11]): < 5.00
- pKi (Cannabinoid receptor 2 [12]): 5.28
- pKi (Cannabinoid receptor 2 [13]): 6.11
- pEC50 (Cannabinoid receptor 2 [14]): 7.11
- pEC50 (Cannabinoid receptor 2 [15]): 7.64
- pEC50 (Cannabinoid receptor 1 [1]): < 5.00
- pEC50 (Cannabinoid receptor 2 [2]): 5.89

Compound: CCOC1CCN(C(=O)C23CC4CC(CC(C4)C2)C3)c2ccccc21 (stereo not given)
- Fh [6]: 6%
- Papp [7]: 0.9 ×10⁻⁶ cm/s
- Papp [8]: 0.7 ×10⁻⁶ cm/s
- logD [9]: 4.09
- solubility [10]: 17 µg/mL (≈ 50.1 µM)
- pEC50 (Cannabinoid receptor 1 [11]): 5.30
- pKi (Cannabinoid receptor 2 [12]): < 5.00
- pKi (Cannabinoid receptor 2 [13]): 6.00
- pEC50 (Cannabinoid receptor 2 [15]): 7.55
- pEC50 (Cannabinoid receptor 1 [1]): < 5.00
- pEC50 (Cannabinoid receptor 2 [3]): 8.74

Compound: COCCOC1CCN(C(=O)C23CC4CC(CC(C4)C2)C3)c2ccccc21 (stereo not given)
- Fh [6]: 5%
- Papp [7]: 5.7 ×10⁻⁶ cm/s
- Papp [8]: 4.4 ×10⁻⁶ cm/s
- logD [9]: 3.82
- solubility [10]: 97 µg/mL (≈ 263 µM)
- pEC50 (Cannabinoid receptor 1 [11]): < 5.00
- pKi (Cannabinoid receptor 2 [12]): 5.82
- pKi (Cannabinoid receptor 2 [13]): 6.46
- pEC50 (Cannabinoid receptor 2 [14]): 7.62
- pEC50 (Cannabinoid receptor 2 [15]): 7.70
- pEC50 (Cannabinoid receptor 1 [1]): < 5.00
- pEC50 (Cannabinoid receptor 2 [2]): 6.05
- pEC50 (Cannabinoid receptor 2 [3]): 7.70

Compound: CN1CCN(C(=O)C23CC4CC(CC(C4)C2)C3)c2ccccc21
- Fh [6]: 10%
- logD [9]: 4.09
- solubility [10]: < 1 µg/mL
- pEC50 (Cannabinoid receptor 1 [11]): < 5.00
- pKi (Cannabinoid receptor 2 [12]): 5.55
- pKi (Cannabinoid receptor 2 [13]): 6.30
- pEC50 (Cannabinoid receptor 2 [14]): 7.15
- pEC50 (Cannabinoid receptor 2 [15]): 7.66
- pEC50 (Cannabinoid receptor 1 [1]): < 5.00
- pEC50 (Cannabinoid receptor 2 [2]): < 5.00
- pEC50 (Cannabinoid receptor 2 [3]): 7.54

Compound: O=C(N1CCc2ccccc21)C12CC3CC(CC(C3)C1)C2
- Fh [6]: 45%
- Papp [7]: 2 ×10⁻⁶ cm/s
- Papp [8]: 0.4 ×10⁻⁶ cm/s
- solubility [10]: < 1 µg/mL
- pEC50 (Cannabinoid receptor 1 [11]): < 5.00
- pKi (Cannabinoid receptor 2 [12]): < 5.00
- pKi (Cannabinoid receptor 2 [13]): 6.34
- pEC50 (Cannabinoid receptor 2 [15]): 7.59
- pEC50 (Cannabinoid receptor 1 [1]): < 5.00
- pEC50 (Cannabinoid receptor 2 [2]): 6.66

Compound: O=C(N1Cc2ccccc2C1)C12CC3CC(CC(C3)C1)C2
- Fh [6]: 51%
- Papp [7]: 14 ×10⁻⁶ cm/s
- Papp [8]: 0.5 ×10⁻⁶ cm/s
- solubility [10]: < 1 µg/mL
- pEC50 (Cannabinoid receptor 1 [11]): < 5.00
- pKi (Cannabinoid receptor 2 [12]): 6.05
- pKi (Cannabinoid receptor 2 [13]): 6.30
- pEC50 (Cannabinoid receptor 2 [15]): 8.15
- pEC50 (Cannabinoid receptor 1 [1]): < 5.00
- pEC50 (Cannabinoid receptor 2 [2]): 6.22

Compound: O=C(N1CCCCc2ccccc21)C12CC3CC(CC(C3)C1)C2
- pEC50 (Cannabinoid receptor 2 [15]): < 5.00
- pEC50 (Cannabinoid receptor 2 [3]): < 5.00

Compound: CC1(C)CN(C(=O)C23CC4CC(CC(C4)C2)C3)c2ccccc21
- Fh [6]: 39%
- solubility [10]: < 1 µg/mL
- pEC50 (Cannabinoid receptor 1 [11]): < 5.00
- pKi (Cannabinoid receptor 2 [12]): 5.31
- pKi (Cannabinoid receptor 2 [13]): 6.30
- pEC50 (Cannabinoid receptor 2 [14]): 7.44
- pEC50 (Cannabinoid receptor 2 [15]): 7.40
- pEC50 (Cannabinoid receptor 1 [1]): < 5.00
- pEC50 (Cannabinoid receptor 2 [2]): 6.05
- pEC50 (Cannabinoid receptor 2 [3]): 7.80

Compound: Cc1cccc2c1CCN2C(=O)C12CC3CC(CC(C3)C1)C2
- Fh [6]: 46%
- solubility [10]: < 1 µg/mL
- pEC50 (Cannabinoid receptor 1 [11]): < 5.00
- pKi (Cannabinoid receptor 2 [12]): 5.89
- pKi (Cannabinoid receptor 2 [13]): 6.77
- pEC50 (Cannabinoid receptor 2 [14]): 7.96
- pEC50 (Cannabinoid receptor 2 [15]): 8.15
- pEC50 (Cannabinoid receptor 1 [1]): < 5.00
- pEC50 (Cannabinoid receptor 2 [2]): 6.54
- pEC50 (Cannabinoid receptor 2 [3]): 8.40

Compound: O=C(N1CCc2cc(F)ccc21)C12CC3CC(CC(C3)C1)C2
- Fh [6]: 52%
- Papp [7]: 4.7 ×10⁻⁶ cm/s
- Papp [8]: 2.3 ×10⁻⁶ cm/s
- solubility [10]: < 1 µg/mL
- pEC50 (Cannabinoid receptor 1 [11]): < 5.22
- pKi (Cannabinoid receptor 2 [12]): 5.62
- pKi (Cannabinoid receptor 2 [13]): 6.70
- pEC50 (Cannabinoid receptor 2 [15]): 8.05
- pEC50 (Cannabinoid receptor 1 [1]): < 5.00
- pEC50 (Cannabinoid receptor 2 [2]): 6.70

Compound: O=C(N1CCc2ccc(C(F)(F)F)cc21)C12CC3CC(CC(C3)C1)C2
- Fh [6]: 36%
- solubility [10]: < 1 µg/mL
- pEC50 (Cannabinoid receptor 1 [11]): < 5.00
- pKi (Cannabinoid receptor 2 [12]): 5.55
- pKi (Cannabinoid receptor 2 [13]): 5.60
- pEC50 (Cannabinoid receptor 2 [14]): 7.31
- pEC50 (Cannabinoid receptor 2 [15]): 8.54
- pEC50 (Cannabinoid receptor 1 [1]): < 5.00
- pEC50 (Cannabinoid receptor 2 [2]): 6.12
- pEC50 (Cannabinoid receptor 2 [3]): 7.82

Compound: Cc1cccc2c1N(C(=O)C13CC4CC(CC(C4)C1)C3)CC2
- Fh [6]: 51%
- solubility [10]: < 1 µg/mL
- pEC50 (Cannabinoid receptor 1 [11]): < 5.00
- pKi (Cannabinoid receptor 2 [12]): < 5.00
- pKi (Cannabinoid receptor 2 [13]): 6.22
- pEC50 (Cannabinoid receptor 2 [14]): 7.09
- pEC50 (Cannabinoid receptor 2 [15]): 7.30
- pEC50 (Cannabinoid receptor 1 [1]): < 5.00
- pEC50 (Cannabinoid receptor 2 [2]): 5.80
- pEC50 (Cannabinoid receptor 2 [3]): 7.26

Compound: O=C(NC12CC3CC(CC(C3)C1)C2)N1Cc2ccccc2C1
- Fh [6]: 37%
- Papp [7]: 26 ×10⁻⁶ cm/s
- Papp [8]: 12 ×10⁻⁶ cm/s
- logD [9]: 4.26
- solubility [10]: < 1 µg/mL
- pEC50 (Cannabinoid receptor 1 [11]): < 5.00
- pKi (Cannabinoid receptor 2 [12]): 6.40
- pKi (Cannabinoid receptor 2 [13]): 6.57
- pEC50 (Cannabinoid receptor 2 [14]): 7.57
- pEC50 (Cannabinoid receptor 2 [15]): 7.72
- pEC50 (Cannabinoid receptor 1 [1]): < 5.00
- pEC50 (Cannabinoid receptor 2 [2]): 6.15

Compound: O=C(N1CCc2ccccc21)C12CC3CC(CC1C3)C2
- Fh [6]: 55%
- Papp [7]: 0.5 ×10⁻⁶ cm/s
- Papp [8]: 1.9 ×10⁻⁶ cm/s
- logD [9]: 3.7
- solubility [10]: < 1 µg/mL
- pEC50 (Cannabinoid receptor 1 [11]): < 5.00
- pKi (Cannabinoid receptor 2 [12]): < 5.00
- pKi (Cannabinoid receptor 2 [13]): 6.30
- pEC50 (Cannabinoid receptor 2 [15]): 7.29
- pEC50 (Cannabinoid receptor 1 [1]): < 5.00
- pEC50 (Cannabinoid receptor 2 [2]): 6.05
- pEC50 (Cannabinoid receptor 2 [3]): 7.66

Compound: O=C(C1C2CC3CC(C2)CC1C3)N1CCc2ccccc21 (stereo not given)
- Fh [6]: 37%
- Papp [7]: 5 ×10⁻⁶ cm/s
- Papp [8]: 0.1 ×10⁻⁶ cm/s
- solubility [10]: < 1 µg/mL
- pEC50 (Cannabinoid receptor 1 [11]): < 5.00
- pKi (Cannabinoid receptor 2 [12]): 5.66
- pKi (Cannabinoid receptor 2 [13]): 6.49
- pEC50 (Cannabinoid receptor 2 [14]): 7.96
- pEC50 (Cannabinoid receptor 2 [15]): 7.70
- pEC50 (Cannabinoid receptor 1 [1]): < 5.00
- pEC50 (Cannabinoid receptor 2 [2]): 6.80
- pEC50 (Cannabinoid receptor 2 [3]): 8.15

Compound: O=C(N1CCc2ccccc21)C12CC3CC(CC(O)(C3)C1)C2
- Fh [6]: 90%
- Papp [7]: 25 ×10⁻⁶ cm/s
- Papp [8]: 10.3 ×10⁻⁶ cm/s
- logD [9]: 2.77
- solubility [10]: > 318 µg/mL
- pEC50 (Cannabinoid receptor 2 [14]): 6.27
- pEC50 (Cannabinoid receptor 2 [15]): 6.00
- pEC50 (Cannabinoid receptor 1 [1]): < 5.00
- pEC50 (Cannabinoid receptor 2 [2]): 5.59

Compound: O=C(N1CCCc2ccccc21)C12CC3CC(CC(C3)C1)C2
- Fh [6]: 23%
- solubility [10]: < 1 µg/mL
- pEC50 (Cannabinoid receptor 1 [11]): < 5.00
- pKi (Cannabinoid receptor 2 [12]): 5.37
- pKi (Cannabinoid receptor 2 [13]): 6.10
- pEC50 (Cannabinoid receptor 2 [14]): 7.26
- pEC50 (Cannabinoid receptor 2 [15]): 6.90
- pEC50 (Cannabinoid receptor 1 [1]): < 5.00
- pEC50 (Cannabinoid receptor 2 [2]): < 5.00
